Experimental data: article PMC5681435, “Differential Regulation of G1 CDK Complexes by the Hsp90-Cdc37 Chaperone System” (Cell Reports, 2017)
“Also recorded” adds a separate entry of the source.

Legend:
CDK4-Cdc37 complex = target: T1, CDK4-Cdc37 complex (Homo sapiens, UniProt P11802); assay type: binding; details: HTRF competition, 8 nM GSTCDK4, 150 nM C-Avi Cdc37
T1 construct: Full length human CDK4 and CDK6 with an N-terminal; made in house; host or cells: GSTCDK4: Sf9 insect cells; Cdc37: E. coli
T1 sequence (P11802 whole entry, one chain of several): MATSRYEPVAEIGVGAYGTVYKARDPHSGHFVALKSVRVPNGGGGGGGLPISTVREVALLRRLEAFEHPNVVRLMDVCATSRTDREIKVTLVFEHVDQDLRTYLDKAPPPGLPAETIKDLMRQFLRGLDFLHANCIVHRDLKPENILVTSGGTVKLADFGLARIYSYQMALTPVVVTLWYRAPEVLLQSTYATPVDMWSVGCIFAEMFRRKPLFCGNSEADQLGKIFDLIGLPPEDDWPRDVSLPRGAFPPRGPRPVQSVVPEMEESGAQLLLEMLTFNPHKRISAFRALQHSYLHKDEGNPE

CDK4 = target: T2, CDK4 (Homo sapiens, UniProt P11802); test: HTRF direct binding to GSTCDK4; details: GSTCDK4 10 nM, read-out: Dissociation constant for binding to CDK4
T2 construct: Full length human CDK4 and CDK6 with an N-terminal; made in house; host or cells: Sf9 insect cells (baculovirus, MultiBac)
T2 sequence (P11802 whole entry): as the sequence (P11802 whole entry, one chain of several) above
Description: (§1) exchange chromatography (HiTrap Q, GE Healthcare). Protein concentrations were determined by NanoDrop2000 UV-Vis Spectrophotometer (Thermo Scientific) or using a Shimadzu UV1800 spectrophotometer. A representative SDS-polyacrylamide gel stained with silver is shown in Figure S4 to illustrate the purity of the GSTCDK4 and GSTCDK6 […]
(§2) Avi-tagged proteins (Cdc37, p16INK4a, p16INK4a mutants, Kcyclin and Vcyclin) were biotinylated to provide an affinity tag for the streptavidin-tagged XL665 dye. A substantial amount of biotinylated protein was purified from the recombinant E. coli cells as a result of endogenous BirA activity. Proteins were further modified by incubating 40 µM of the Avi-tagged protein with 10 µg BirA in biotinylation buffer (50 mM Bicine pH 8.3, 10 mM ATP, 10 mM MgOAc, 50 µM d-biotin) at 30°C for 60 minutes. […] The extent of protein biotinylation was monitored by pull downs using High Capacity NeutrAvidin® Agarose Resin (Thermo […]
(§3) To assemble the various complexes, 15 µg of Cdc37 was mixed with a molar equivalent of CDK6, and incubated for 1hour at 4 °C. […] The reactions were stopped by addition of 2 x LDS buffer and analysed by SDS-PAGE and subsequent western blotting using an anti-phosphorylated S780 antibody […]
(§4) Homogenous time-resolved fluorescence (HTRF) […]

[1] = target: B-Raf^V600E kinase domain; parameters: method as in Polier et al., 2013; details: isothermal titration calorimetry; ref Polier et al., 2013; read-out: Affinity of Cdc37-B-Raf^V600E kinase domain interaction; cited from earlier work
CDK6 = target: T3, CDK6 (Homo sapiens, UniProt Q00534); test: HTRF direct binding to GSTCDK6; details: GSTCDK6 10 nM, read-out: Dissociation constant for binding to CDK6
T3 construct: Full length human CDK4 and CDK6 with an N-terminal; made in house; host or cells: Sf9 insect cells (baculovirus, MultiBac)
T3 sequence (Q00534 whole entry): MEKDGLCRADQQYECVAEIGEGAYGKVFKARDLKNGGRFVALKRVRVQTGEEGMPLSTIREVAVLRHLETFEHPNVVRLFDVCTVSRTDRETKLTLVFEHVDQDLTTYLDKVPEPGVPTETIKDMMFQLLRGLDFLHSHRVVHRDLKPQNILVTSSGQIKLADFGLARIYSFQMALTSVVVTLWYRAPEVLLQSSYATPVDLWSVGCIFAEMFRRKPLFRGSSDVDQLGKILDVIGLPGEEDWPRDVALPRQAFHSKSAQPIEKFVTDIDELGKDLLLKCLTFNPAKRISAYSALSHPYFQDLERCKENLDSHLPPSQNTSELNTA
Description: as §1, §2, §3, §4

CDK2 = target: T4, CDK2 (Homo sapiens, UniProt P24941); test: HTRF direct binding to GSTCDK2; details: GSTCDK2 25 nM
T4 construct: made in house; host or cells: E. coli BL21STAR(DE3)
Description: as §1, §2, §3, §4

CDK6-cyclin D = system: CDK6-cyclin D; parameters: method as in Sherr et al., 2016; details: ref Sherr et al., 2016; read-out: IC50 against CDK6-cyclin D; cited from earlier work
CDK4-cyclin D = system: CDK4-cyclin D; parameters: method as in Sherr et al., 2016; details: ref Sherr et al., 2016; read-out: IC50 against CDK4-cyclin D; cited from earlier work
[2] = target: T5, CDK4-cyclin D1/D3 complexes (Homo sapiens, UniProt P11802); test: HTRF association of Avi-tagged Cdc37 with GSTCDK4-cyclin D complexes with or without p21M/p27M; assay type: binding; details: ternary complex, Figure 4E
T5 construct: Full length human CDK4 and CDK6 with an N-terminal; made in house; host or cells: Sf9 insect cells (co-expression)
T5 sequence (P11802 whole entry): as the sequence (P11802 whole entry, one chain of several) above
T5 sequence (P30281 whole entry partner): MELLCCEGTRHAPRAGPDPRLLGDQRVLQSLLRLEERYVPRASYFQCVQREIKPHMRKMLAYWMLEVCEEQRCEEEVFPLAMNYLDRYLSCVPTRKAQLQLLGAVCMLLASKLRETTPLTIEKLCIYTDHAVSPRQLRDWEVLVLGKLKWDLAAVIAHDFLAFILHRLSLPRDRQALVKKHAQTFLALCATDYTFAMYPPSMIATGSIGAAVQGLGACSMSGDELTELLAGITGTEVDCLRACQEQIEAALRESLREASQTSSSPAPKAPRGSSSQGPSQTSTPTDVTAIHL
Description: To find out whether the CIP/KIP CKIs can cooperate with cyclin D isoforms to generate a stable ternary CDK4 complex that is resistant to displacement by Cdc37, we next purified GSTCDK4-cyclin D1 and D3 and GSTCDK6-cyclin D1 and D3 complexes assembled in insect cells, incubated them with excess p21M or p27M, and isolated the complexes by size-exclusion chromatography. We then used the HTRF assay to measure the association of Avi-tagged Cdc37 with GSTCDK4 and GSTCDK6, which were presented unpartnered, in a binary complex with cyclin D1 or cyclin D3, or in a ternary complex with cyclin D1 or D3 and p21M, or p27M. As shown previously, Cdc37 binds to monomeric CDK4 (Figures 4C and 4E, blue lines) and effectively displaces cyclin D1 or cyclin D3 (Figures 4C and 4E, red lines). […]
as §1
Avi-tagged proteins (Cdc37, p16INK4a, p16INK4a mutants, Kcyclin and Vcyclin) were biotinylated to provide an affinity tag for the streptavidin-tagged XL665 dye. […] The extent of protein biotinylation was monitored by pull downs using High Capacity NeutrAvidin® Agarose Resin (Thermo […]

**Q.** Which “Displacement of Cdc37 from CDK4-Cdc37 complex (in words)” value (CDK4-Cdc37 complex) does the source give for p21S: p21CIP1 fragment residues 9–87 here?
**A.** can displace

**Q.** Which Kd (CDK4) does the source give for “Cdc37: human Hsp90 adaptor co-chaperone Cdc37, recombinant, Avi- or FLAG-tagged” here?
**A.** 92 ± 29 nM

**Q.** What about the Kd [1] of the same compound?
**A.** ~200 nM

**Q.** And the Kd (CDK6)?
**A.** 460 ± 230 nM

**Q.** And the “Binding to CDK2” value (CDK2)?
**A.** not bind to CDK2; also recorded: no interaction could be detected

**Q.** Which IC50 (CDK6-cyclin D) does the source give for `CN(C)C(=O)c1cc2cnc(Nc3ccc(N4CCNCC4)cn3)nc2n1C1CCCC1` [LEE011, ribociclib] here?
**A.** 39 nM

**Q.** And the IC50 (CDK4-cyclin D)?
**A.** 10 nM

**Q.** For `CC(=O)c1c(C)c2cnc(Nc3ccc(N4CCNCC4)cn3)nc2n(C2CCCC2)c1=O` [PD0332991, palbociclib], which IC50 (CDK6-cyclin D) is on record?
**A.** 15 nM

**Q.** What about the IC50 (CDK4-cyclin D) of the same compound?
**A.** 11 nM

**Q.** What does the source list for p21M: p21CIP1 fragment residues 1–87?
**A.** Displacement of Cdc37 from CDK4-Cdc37 complex (in words) (CDK4-Cdc37 complex): can displace; Effect of addition to CDK4-cyclin D3 on Cdc37 binding [2]: prevent Cdc37 from binding

**Q.** Which “Displacement of Cdc37 from CDK4-Cdc37 complex (in words)” value (CDK4-Cdc37 complex) does the source give for `CCN1CCN(Cc2ccc(Nc3ncc(F)c(-c4cc(F)c5nc(C)n(C(C)C)c5c4)n3)nc2)CC1` [LY2835219, abemaciclib] here?
**A.** unable to derive reproducible inhibition curves

**Q.** What about the IC50 (CDK6-cyclin D) of the same compound?
**A.** 5 nM

**Q.** And the IC50 (CDK4-cyclin D)?
**A.** 2 nM
